The target in test [1] is T1, Recombinant Human L-Selectin/IgG binding to heparin (Homo sapiens, UniProt P14151).
T1 construct: purchased Research and Development Systems 728-LS
T1 sequence (P14151 39-332 limits assumed): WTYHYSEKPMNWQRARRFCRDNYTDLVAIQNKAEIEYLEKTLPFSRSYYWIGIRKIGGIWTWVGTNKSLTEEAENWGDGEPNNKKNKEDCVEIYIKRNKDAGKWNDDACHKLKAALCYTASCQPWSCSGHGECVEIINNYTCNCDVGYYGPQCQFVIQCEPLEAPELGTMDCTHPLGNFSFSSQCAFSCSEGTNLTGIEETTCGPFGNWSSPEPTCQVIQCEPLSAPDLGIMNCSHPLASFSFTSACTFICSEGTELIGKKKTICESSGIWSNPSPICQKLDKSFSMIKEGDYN
Put plainly: Inhibition of L-selectin binding to heparin (ELISA, immobilized heparin-BSA). Conditions: for IC50: compounds tested at 0.01 to 300 μM, representative results, read-out: IC-50, inhibition of L-Selectin binding to heparin; for inhibition at 30 µM: read-out: % Inhibition at 30 microMolar conc. (L-Selectin binding to heparin). Here is the method: An in vitro assay was used to assess the ability of test compounds according to formula I to inhibit the interactions of L-selectin with HS-GAGs. The assay was suitable for determining the concentration required for 50% inhibition (IC-50) for each specific compound. In the assay, the GAG used was heparin. Thus, porcine intestinal mucosa heparin conjugated to Bovine Serum Albumin (Heparin-BSA; Sigma Cat. No. H0403) at 5 mg/ml in Phosphate-Buffered Saline (PBS; pH 6.5) was added to a 96-well polystyrene ELISA plate (NUNC Cat. No. 442404; 0.1 ml per well) and incubated over night at 4° C. Following the incubation, the plate was washed thoroughly, by immersion, with de-ionized water and PBS (pH 6.5). The ELISA plate was then blocked with BSA (ICN Cat. No.160069, 3%, 200 μl per well) for 1 hour at room temperature. Following blocking, the plate was washed with de-ionized water, and then with PBS (pH 6.5) containing Tween 20 (Sigma Cat. No. P-1379, 0.05%). Compounds were synthesized or purchased from suppliers of chemical compounds such as ChemDiv Labs (San Diego, Calif.), dissolved in DMSO, diluted in PBS and added to the wells at various concentrations in the range of 0.01 to 300 μM. Recombinant Human L-Selectin/IgG (Research and Development Systems Cat. No.728-LS) dissolved in PBS supplemented with BSA (0.1%) and calcium chloride (1 mM) was added to the ELISA plate (100 μl per well) and incubated for 60 minutes at room temperature with shaking. Following incubation, the plate was washed with de-ionized water and three times with PBS (pH 6.5) containing Tween 20. Anti-Human IgG Peroxidase Conjugate (1:5000; Sigma Product No. A8667) diluted in PBS supplemented with BSA (0.1%) and calcium chloride (1 mM) was added to the ELISA plate (100 μl per well) and incubated for 30 minutes at room temperature with shaking. The plate was then washed with de-ionized water and three times with PBS (pH 6.5) containing Tween 20. The peroxidase substrate chromogen tetramethyl benzidine (TMB; Dako Cat. No. S1599) was added (100 μl per well) to the ELISA plate and incubated at room temperature. After 15 minutes, ELISA Stop Solution (hydrochloric acid 1N, sulfuric acid 3N) was added (200 μl per well) to stop the peroxidase catalyzed colorimetric reaction. The Optical Density (OD) of the samples was measured at 450 nm using an ELISA plate reader (Dynatech MR5000). Data were analyzed with Graphpad Prism software and IC-50 values were established.
For orientation: In an ELISA, binding on a coated surface is turned into a signal by an enzyme label.

The target of test [2] is T2, CMV envelope glycoprotein B binding to immobilized heparin (Human cytomegalovirus, UniProt P06473).
T2 construct: purchased Research Diagnostics, INC; RDI-RCMVAG-B
Put plainly: Inhibition of CMV envelope glycoprotein B binding to immobilized heparin (ELISA). Conditions: for inhibition at 30 µM: read-out: % Inhibition at 30 microMolar conc. (CMV envelope glycoprotein B binding to immobilized heparin); for inhibition at 100 µM: read-out: % Inhibition at 100 microMolar conc. (CMV envelope glycoprotein B binding to immobilized heparin). Here is the method:
Porcine intestinal mucosa heparin conjugated to Bovine Serum Albumin (Heparin-BSA; Sigma Cat. No. H0403) at 5 mg/ml in Phosphate-Buffered Saline (PBS; pH 6.5) was added to a 96-well polystyrene ELISA plate (NUNC Cat. No. 442404; 0.1 ml per well) and incubated over night at 4° C. Following the incubation, the plate was washed consecutively, by immersion, with de-ionized water and PBS (pH 6.5). The ELISA plate was then blocked with BSA (ICN Cat. No. 160069, 3%, 200 μl per well) for 1 hour at room temperature. Following blocking, the plate was washed with de-ionized water, and then with PBS (pH 6.5) plus Tween 20 (0.05%). CMV envelope glycoprotein B (Research Diagnostics, INC. Cat. No. RDI-RCMVAG-B) dissolved in PBS (supplemented with BSA (0.1%)) was added to the ELISA plate (100 μl per well) and incubated for 60 minutes at room temperature with shaking. Following incubation, the plate was washed with de-ionized water and with PBS (pH 6.5) plus Tween. Mouse anti-human Cytomegalovirus gB antibody (Research Diagnostics, INC. Cat. No. RDI-CMVG Babm) diluted in PBS (supplemented with BSA(0.1%)), 1:2000, was added to the ELISA plate (100 μl per well) and incubated for 90 minutes at room temperature with shaking. Following the incubation, the plate was washed with de-ionized water and PBS (pH 6.5) plus Tween. Goat anti-Mouse IgG (H&L) Peroxidase Conjugated antibody (Chemicon International, Inc. Cat. No. AP124P) diluted in PBS (supplemented with BSA (0.1%)), 1:1000, was added to the ELISA plate (100 μl per well) and incubated for 30 minutes at room temperature with shaking. Following the incubation, the plate was washed with de-ionized water and with PBS (pH 6.5) plus Tween. The peroxidase substrate chromogen, TMB (Dako Cat. No. S1599) was added (100 μl per well) to the ELISA plate and incubated at room temperature. After 15 minutes, ELISA Stop Solution (hydrochloric acid iN, sulfuric acid 3N) was added (200 μl per well) to stop the peroxidase catalyzed colorimetric reaction. The Optical Density (OD) of the samples was measured at 450 nm using an ELISA plate reader (Dynatech MR5000).
The CMV envelope glycoprotein B (GBVP) binding assay described above was used to screen a synthetic chemical compound collection on 96-well plates. The compound collection was purchased from ChemDiv Inc. (San Diego, Calif.). […] Individual compounds at a final concentration of 30 or 100 μM were co-incubated with the GBVP on plates containing immobilized heparin and, following washing, bound GBVP was detected with anti-CMV GBVP antibody and secondary antibody conjugated to horseradish peroxidase, as described above. Following color development, the % inhibition compared to control (no compound) for every compound was determined. Compounds that inhibited at least 30% of the signal were scored as hits.

Test [3] has as its system BALB/c mice. Put plainly: Carrageenan-induced paw edema. The format is in vivo, mouse. Here is the method:
Acute edema was induced in the left hind paw of BALB/c mice (12 mice/group) by injecting 0.02 ml of freshly prepared solution of 2% carrageenan (Sigma) after 60 min of test compound administration (Torres, S. R. et al., European Journal of Pharmacology 408: 199-211, 2000). […], which served as a control. Carrageenan was injected under the plantar region of […] and the paw thickness was measured at 2,4 and 24 hours after carrageenan challenge using a Mitutoyo engineer's micrometer expressed as the difference between right and left pad as mean ±SEM.

The test system of test [4] is BALB/c mice. Put plainly: Thioglycollate-induced leukocyte and neutrophil infiltration into mouse peritoneum. Conditions: 10 mg/kg i.p. The format is in vivo. How it is done: BALB/c mice (Velaz, Prague; 6 weeks old, ˜20 g in weight, 15 mice/group) received intraperitoneal injection of an inhibitor compound in 0.2 ml DMSO/Tween/sterile saline 1 hour before administration of thioglycollate (Sigma). Control groups received vehicle and sham controls received no thioglycollate. Mice were injected intraperitoneally with 1 ml of 3% thioglycollate broth (Xie, X. et al., J. Biol. Chem., 275, 34818-34825, 2000). Mice were sacrificed after 3 hours, and the peritoneal cavities were lavaged with 5 ml of ice-cold saline containing 2 mM EDTA to prevent clotting. After red blood cell lysis, leukocytes were counted in a hemocytometer. Neutrophils were counted after staining with Türck's reagent (Merck, Darmstadt, Germany). Data was expressed as mean ±SEM, and statistical analysis was performed by Student t test. A value of p<0.05 was taken to denote statistical significance.

Test [5] has as its system BALB/c mice. The test can be described thus: Delayed-type hypersensitivity (DTH), oxazolone mouse ear-swelling test. Conditions: 25 mg/kg per os, 1 hr prior to challenge; 24 hours after challenge. In kind it is in vivo. Here is the method: BALB/c mice (Velaz, Prague, Czech Republic; 8 weeks old; 15 animals per group) were sensitized by topical application of a 2% oxazolone (4-ethoxymethylene -2-phenyl-2-oxazoline-5-one; Sigma, St Louis, Mo.) solution in acetone/olive oil (4:1 vol/vol) to shaved abdomen (50 μl) and to each paw (5 μl) (Lange-Asschenfeldt B. et al., Blood 99:538-545, 2002). Five days after sensitization, right ears were challenged by topical application of 10 μl of a 1% oxazolone solution, whereas left ears were treated with vehicle alone. Compounds were administered 1 hr prior to challenge. The extent of inflammation was measured 24 hours after challenge, using the mouse ear-swelling test. Animals were numbered (tail marking) and weighed and the thickness of both ears was recorded with a constant-loading dial micrometer (Mitutoyo, Tokyo). The unpaired Student t-test was used for statistical analyses.

T2 sequence (P06473 32-906): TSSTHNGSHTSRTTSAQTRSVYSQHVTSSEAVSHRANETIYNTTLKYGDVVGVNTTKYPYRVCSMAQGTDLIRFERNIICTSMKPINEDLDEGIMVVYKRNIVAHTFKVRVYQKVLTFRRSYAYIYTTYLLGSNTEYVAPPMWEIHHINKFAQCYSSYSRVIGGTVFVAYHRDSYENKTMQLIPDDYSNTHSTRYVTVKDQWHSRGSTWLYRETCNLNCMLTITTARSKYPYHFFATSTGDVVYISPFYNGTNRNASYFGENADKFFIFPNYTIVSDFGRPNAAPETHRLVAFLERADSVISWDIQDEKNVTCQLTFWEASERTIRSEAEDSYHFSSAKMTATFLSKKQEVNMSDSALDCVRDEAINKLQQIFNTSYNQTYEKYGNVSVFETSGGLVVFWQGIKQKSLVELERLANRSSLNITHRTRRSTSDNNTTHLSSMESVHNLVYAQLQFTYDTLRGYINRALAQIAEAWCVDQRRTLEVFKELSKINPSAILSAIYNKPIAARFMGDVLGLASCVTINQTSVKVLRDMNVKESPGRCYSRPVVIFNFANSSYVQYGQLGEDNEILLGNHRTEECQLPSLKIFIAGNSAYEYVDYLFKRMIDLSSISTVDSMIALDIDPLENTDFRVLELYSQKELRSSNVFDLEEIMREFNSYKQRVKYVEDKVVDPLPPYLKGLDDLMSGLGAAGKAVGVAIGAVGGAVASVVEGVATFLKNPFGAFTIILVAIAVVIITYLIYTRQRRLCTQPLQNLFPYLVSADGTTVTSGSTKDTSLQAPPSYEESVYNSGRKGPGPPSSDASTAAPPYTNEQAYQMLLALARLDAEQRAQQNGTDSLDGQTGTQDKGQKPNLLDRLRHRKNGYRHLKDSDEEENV

As for “2-[[2-[[(3-chlorophenyl)methyl]thio]-3-pentyl-3,4-dihydro-4-oxo-N-(4-methylpiperazin -7-quinazolinecarboxamide [Compound 8]”, the “% Inhibition at 30 microMolar conc. (L-Selectin binding to heparin)” value in test [1] (30 microMolar) is 59%.

Turning to `O=C(NCCCN1CCOCC1)c1ccc2c(=O)n(-c3ccc(F)cc3)c(SCc3ccc(Cl)cc3)nc2c1` [Compound 1, 2-[[(4-chlorophenyl)methyl]thio]-3-(4-fluorophenyl)-3,4-dihydro-4-oxo-N-[3-(4-morpholinyl)propyl]-7-quinazolinecarboxamide], the IC50 in test [1] turned out to be 7 ± 1 µM. Also, the inhibition at 30 µM in test [2] amounted to 33%. Moreover, the “Inhibition of paw edema (difference in paw thickness)” value in test [3] (1 mg/kg oral, 24 hours after induction) was “inhibited paw edema”. Besides, in test [4] (1 hour before thioglycollate, 3 hours), the “Leukocyte migration into the peritoneal cavity” value is reported as “inhibited efficiently”. Also, the “Neutrophil accumulation in the peritoneal cavity” value in test [4] (3 hours after thioglycollate) was 48 % of control value.

With `Cc1ccc(CSc2nc3cc(C(=O)NCCCN4CCOCC4)ccc3c(=O)n2-c2ccc(F)cc2)cc1` [Compound 2, 2-[[(4-methylphenyl)methyl]thio]-3-(4-fluorophenyl)-3,4-dihydro-4-oxo-N-[3-(4-morpholinyl)propyl]-7-quinazolinecarboxamide], the IC50 in test [1] worked out at 24 ± 1.2 µM. For the same molecule, the inhibition at 100 µM in test [2] was determined as 86%. Besides, in test [5], the “Inhibition of DTH (difference in ear thickness)” value is on record as “inhibited DTH”.

Turning to `O=C(NCCCN1CCOCC1)c1ccc2c(=O)n(-c3ccc(F)cc3)c(SCc3cccc(F)c3)nc2c1` [Compound 3, 2-[[(3-fluorophenyl)methyl]thio]-3-(4-fluorophenyl)-3,4-dihydro-4-oxo-N-[3-(4-morpholinyl)propyl]-7-quinazolinecarboxamide], the IC50 in test [1] turned out to be 22 ± 1.2 µM. In test [2], the inhibition at 30 µM turned out to be 85% and the inhibition at 100 µM is 88%.

On to `COCCNC(=O)c1ccc2c(=O)n(Cc3ccco3)c(SCc3cc(=O)n4ccccc4n3)nc2c1` [Compound 5, 2-[[(4-oxo-4H-pyrido [1,2-a]pyrimidin-2-yl)methyl]thio]-3-(2-furanylmethyl) -3,4-dihydro-4-oxo-N-(2-methoxyethyl)-7-quinazolinecarboxamide], for which, in test [1], the inhibition at 30 µM worked out at 50%. Also, the inhibition at 100 µM in test [1] (read-out: % Inhibition at 100 microMolar conc. (L-Selectin binding to heparin)) turned out to be 52%.

`O=C(CSc1nc2cc(C(=O)NCCCN3CCCCC3)ccc2c(=O)n1CC1CCCO1)c1ccccc1` (stereo not shown) [Compound 6, 2-[(2-oxo-2-phenylethyl)thio]-3-[(tetrahydro-2-furanyl)methyl]-3,4-dihydro-4-oxo -N-[3-(1-piperidinyl)propyl]-7-quinazolinecarboxamide]: the inhibition at 30 µM in test [1] is 30%.

As to `CCCCCn1c(SCc2ccncc2)nc2cc(C(=O)N3CCN(C(=O)OCC)CC3)ccc2c1=O` [Compound 7, 4-[[3,4-dihydro-4-oxo-3-pentyl-2-[(4-pyridinylmethyl)thio]-7-quinazolinyl]carbonyl]-1-piperazinecarboxylic acid ethyl ester], the inhibition at 30 µM in test [1] amounted to 83%.

`CC(C)Cn1c(S)nc2cc(C(=O)NCCCn3ccnc3)ccc2c1=O` [Compound 9, 2-mercapto-3-(2-methylpropyl-3)-3,4-dihydro-4-oxo-N-[3-(1N-imidazol-1-yl)propyl]-7-quinazolinecarboxamide]: in test [1], the IC50 was 21 ± 1.6 µM. The “Inhibition of paw edema (difference in paw thickness)” value in test [3] (50 mg/kg oral, measured after 24 hours) is “inhibited paw edema”.

With `CN1CCN(C(=O)c2ccc3c(=O)n(-c4ccccc4)c(SCC(=O)C(C)(C)C)nc3c2)CC1` [Compound 10], in test [1], the IC50 came out at 22 ± 1.5 µM.

For orientation: % Inhibition means the change of the read-out against control, counted positive when it falls. As a reminder, the inhibition is the share of the control response that was lost under treatment.

The values are drawn from patent US20070191400A1, “Pharmaceutical compositions comprising anti-inflammatory quinazolinecarboxamide derivatives” (Rimonyx Pharmaceuticals Ltd., priority 2004, published 2007).
